# PubChem BioAssay (NCI)
#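 GI50: concentration for 50% inhibition of growth. TGI marks complete inhibition of growth.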
# What was measured:
# Assay in all cases: NCI-60 cell line screen, 384-well format
# UACC-257 melanoma = tested on: UACC-257 melanoma
# IGROV1 ovarian = tested on: IGROV1 ovarian
# MOLT-4 leukemia = tested on: MOLT-4 leukemia
# MCF7 breast = tested on: MCF7 breast
# KM12 colon = tested on: KM12 colon
# OVCAR-3 ovarian = tested on: OVCAR-3 ovarian
# NCI-H460 NSCLC = tested on: NCI-H460 NSCLC
# BT-549 breast = tested on: BT-549 breast
# TK-10 renal = tested on: TK-10 renal
# HT29 colon = tested on: HT29 colon
# SK-MEL-5 melanoma = tested on: SK-MEL-5 melanoma
# OVCAR-5 ovarian = tested on: OVCAR-5 ovarian
# UO-31 renal = tested on: UO-31 renal
# HL-60(TB) leukemia = tested on: HL-60(TB) leukemia
# EKVX NSCLC = tested on: EKVX NSCLC
# SW-620 colon = tested on: SW-620 colon
# RPMI-8226 leukemia = tested on: RPMI-8226 leukemia
# T-47D breast = tested on: T-47D breast
# SNB-75 CNS = tested on: SNB-75 CNS
# OVCAR-8 ovarian = tested on: OVCAR-8 ovarian
# SF-539 CNS = tested on: SF-539 CNS
# SK-OV-3 ovarian = tested on: SK-OV-3 ovarian
# OVCAR-4 ovarian = tested on: OVCAR-4 ovarian
# PC-3 prostate = tested on: PC-3 prostate
# 786-0 renal = tested on: 786-0 renal
# MALME-3M melanoma = tested on: MALME-3M melanoma
# SN12C renal = tested on: SN12C renal
# SNB-19 CNS = tested on: SNB-19 CNS
# HCT-116 colon = tested on: HCT-116 colon
# NCI-H226 lung = tested on: NCI-H226 lung
# A498 renal = tested on: A498 renal
# UACC-62 melanoma = tested on: UACC-62 melanoma
# HOP-92 NSCLC = tested on: HOP-92 NSCLC
# MDA-MB-435 melanoma = tested on: MDA-MB-435 melanoma
# HOP-62 NSCLC = tested on: HOP-62 NSCLC
# HCT-15 colon = tested on: HCT-15 colon
# RXF 393 renal = tested on: RXF 393 renal
# SR leukemia = tested on: SR leukemia
# A549 NSCLC = tested on: A549 NSCLC
# SK-MEL-2 melanoma = tested on: SK-MEL-2 melanoma
# CAKI-1 renal = tested on: CAKI-1 renal
# SK-MEL-28 melanoma = tested on: SK-MEL-28 melanoma
# NCI-H522 lung = tested on: NCI-H522 lung
# M14 melanoma = tested on: M14 melanoma
# HCC-2998 colon = tested on: HCC-2998 colon
# ACHN renal = tested on: ACHN renal
# DU-145 prostate = tested on: DU-145 prostate
structure (smiles),measurement,setting,value
O=C(c1cc(Cc2n[nH]c(=O)c3ccccc23)ccc1F)N1CCN(C(=O)C2CC2)CC1,GI50,UACC-257 melanoma,> 100 µM
same,TGI,UACC-257 melanoma,> 100 µM
same,GI50,IGROV1 ovarian,> 62.7 µM
same,TGI,IGROV1 ovarian,> 100 µM
same,GI50,MOLT-4 leukemia,1.43 µM
same,TGI,MOLT-4 leukemia,3.03 µM
same,GI50,MCF7 breast,28.6 µM
same,TGI,MCF7 breast,> 100 µM
same,GI50,KM12 colon,> 100 µM
same,TGI,KM12 colon,> 100 µM
same,GI50,OVCAR-3 ovarian,60.5 µM
same,TGI,OVCAR-3 ovarian,> 100 µM
same,GI50,NCI-H460 NSCLC,5.78 µM
same,TGI,NCI-H460 NSCLC,> 100 µM
same,GI50,BT-549 breast,17.2 µM
same,TGI,BT-549 breast,> 75.8 µM
same,GI50,TK-10 renal,> 100 µM
same,TGI,TK-10 renal,> 100 µM
same,GI50,HT29 colon,> 100 µM
same,TGI,HT29 colon,> 100 µM
same,GI50,SK-MEL-5 melanoma,35 µM
same,TGI,SK-MEL-5 melanoma,> 73.1 µM
same,GI50,OVCAR-5 ovarian,> 100 µM
same,TGI,OVCAR-5 ovarian,> 100 µM
same,GI50,UO-31 renal,> 92.7 µM
same,TGI,UO-31 renal,> 100 µM
same,GI50,HL-60(TB) leukemia,21.2 µM
same,TGI,HL-60(TB) leukemia,> 100 µM
same,GI50,EKVX NSCLC,97.7 µM
same,TGI,EKVX NSCLC,> 100 µM
same,GI50,SW-620 colon,> 35 µM
same,TGI,SW-620 colon,> 100 µM
same,GI50,RPMI-8226 leukemia,12.7 µM
same,TGI,RPMI-8226 leukemia,> 100 µM
same,GI50,T-47D breast,34.8 µM
same,TGI,T-47D breast,> 100 µM
same,GI50,SNB-75 CNS,22.5 µM
same,TGI,SNB-75 CNS,> 95.9 µM
same,GI50,OVCAR-8 ovarian,22 µM
same,TGI,OVCAR-8 ovarian,> 100 µM
same,GI50,SF-539 CNS,11.8 µM
same,TGI,SF-539 CNS,> 100 µM
same,GI50,SK-OV-3 ovarian,> 55.5 µM
same,TGI,SK-OV-3 ovarian,> 100 µM
same,GI50,OVCAR-4 ovarian,> 80.3 µM
same,TGI,OVCAR-4 ovarian,> 100 µM
same,GI50,PC-3 prostate,> 100 µM
same,TGI,PC-3 prostate,> 100 µM
same,GI50,786-0 renal,> 100 µM
same,TGI,786-0 renal,> 100 µM
same,GI50,MALME-3M melanoma,> 100 µM
same,TGI,MALME-3M melanoma,> 100 µM
same,GI50,SN12C renal,> 100 µM
same,TGI,SN12C renal,> 100 µM
same,GI50,SNB-19 CNS,99.2 µM
same,TGI,SNB-19 CNS,> 100 µM
same,GI50,HCT-116 colon,8.27 µM
same,TGI,HCT-116 colon,> 100 µM
same,GI50,NCI-H226 lung,34.5 µM
same,TGI,NCI-H226 lung,> 100 µM
same,GI50,A498 renal,> 100 µM
same,TGI,A498 renal,> 100 µM
same,GI50,UACC-62 melanoma,> 95.7 µM
same,TGI,UACC-62 melanoma,> 100 µM
same,GI50,HOP-92 NSCLC,57.3 µM
same,TGI,HOP-92 NSCLC,> 100 µM
same,GI50,MDA-MB-435 melanoma,> 100 µM
same,TGI,MDA-MB-435 melanoma,> 100 µM
same,GI50,HOP-62 NSCLC,4.92 µM
same,TGI,HOP-62 NSCLC,> 75.5 µM
same,GI50,HCT-15 colon,> 100 µM
same,TGI,HCT-15 colon,> 100 µM
same,GI50,RXF 393 renal,> 37.6 µM
same,TGI,RXF 393 renal,> 79.6 µM
same,GI50,SR leukemia,1.37 µM
same,TGI,SR leukemia,3.38 µM
same,GI50,A549 NSCLC,44.9 µM
same,TGI,A549 NSCLC,> 100 µM
same,GI50,SK-MEL-2 melanoma,> 100 µM
same,TGI,SK-MEL-2 melanoma,> 100 µM
same,GI50,CAKI-1 renal,52.4 µM
same,TGI,CAKI-1 renal,> 100 µM
same,GI50,SK-MEL-28 melanoma,> 100 µM
same,TGI,SK-MEL-28 melanoma,> 100 µM
same,GI50,NCI-H522 lung,51.7 µM
same,TGI,NCI-H522 lung,> 100 µM
same,GI50,M14 melanoma,> 91.5 µM
same,TGI,M14 melanoma,> 100 µM
same,GI50,HCC-2998 colon,> 29.2 µM
same,TGI,HCC-2998 colon,> 100 µM
same,GI50,ACHN renal,> 81.8 µM
same,TGI,ACHN renal,> 100 µM
same,GI50,DU-145 prostate,53.5 µM
same,TGI,DU-145 prostate,> 100 µM
